Reference: ChEMBL document CHEMBL1123824 (J Med Chem, 1987)
Where a SMILES comes first, the peptide text is derived from it. The star is where a group is joined. X1 = CCCN1C(=O)C2NC(c3ccc(OCC(=O)NCCNC(=O)C(N)CC(=O)*)cc3)=NC2N(CCC)C1=O; X2 = O=C(Cc1ccc(Nc2ncnc3c2ncn3[C@@H]2O[C@H](CO)[C@@H](O)[C@H]2O)cc1)*

Tests used:
[1] = target: Adenosine receptor (Rattus norvegicus, UniProt P29276+P25099+P30543+P28647); experiment: Ability to inhibit the binding of [3H]N6-phenylisopropyl adenosine to adenosine receptor in rat cerebral cortex membranes; assay type: cell membranes, Membrane
[2] = target: Substance-P receptor (Rattus norvegicus, UniProt P14600); experiment: Ability to inhibit the binding of [125I]physalaemin to the SP receptors in rat telencephalon slices
Sequence of Substance-P receptor (P14600 whole entry): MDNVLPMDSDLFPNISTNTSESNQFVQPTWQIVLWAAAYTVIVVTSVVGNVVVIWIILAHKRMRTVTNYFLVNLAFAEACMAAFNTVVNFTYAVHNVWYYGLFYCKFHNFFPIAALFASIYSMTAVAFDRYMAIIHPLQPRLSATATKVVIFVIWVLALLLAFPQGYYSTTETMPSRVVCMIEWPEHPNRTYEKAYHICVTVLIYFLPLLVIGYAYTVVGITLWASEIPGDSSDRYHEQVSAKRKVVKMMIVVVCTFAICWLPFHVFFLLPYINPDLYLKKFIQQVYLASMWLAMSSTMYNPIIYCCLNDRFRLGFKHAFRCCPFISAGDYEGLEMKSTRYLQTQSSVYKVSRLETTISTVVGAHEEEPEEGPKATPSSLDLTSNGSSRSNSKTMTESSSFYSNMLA

CCCN1C(=O)C2NC(c3ccc(OCC(=O)NCCN)cc3)=NC2N(CCC)C1=O (stereo not given)
Ki [1]: 1.2 nM
Ki [2]: > 10000 nM

CSCC[C@@H](NC(=O)[C@H](CC(C)C)NC(=O)CNC(=O)[C@H](Cc1ccccc1)NC(=O)[C@@H](N)Cc1ccccc1)C(N)=O
Ki [1]: > 30000 nM

CSCC[C@H](NC(=O)[C@H](CC(C)C)NC(=O)CNC(=O)[C@H](Cc1ccccc1)NC(=O)[C@@H](N)Cc1ccccc1)C(N)=O
Ki [2]: > 10000 nM

CSCC[C@@H](NC(=O)[C@H](CC(C)C)NC(=O)CNC(=O)[C@H](Cc1ccccc1)NC(=O)[C@H](Cc1ccccc1)NC(C)=O)C(N)=O
Ki [1]: > 30000 nM

H-QQFFGLM-NH2
Ki [2]: 180 nM

CSCC[C@H](NC(=O)[C@H](CC(C)C)NC(=O)CNC(=O)[C@H](Cc1ccccc1)NC(=O)[C@H](Cc1ccccc1)NC(=O)[C@H](CCC(N)=O)NC(=O)[C@H](CCC(N)=O)NC(=O)[C@@H]1CCCN1C(=O)[C@H](CCCCN)NC(=O)[C@@H]1CCCN1C(=O)[C@@H](N)CCCN=C(N)N)C(N)=O [SUBSTANCE P]
Ki [1]: > 30000 nM

O=C(O)Cc1ccc(Nc2ncnc3c2ncn3C2O[C@H](CO)[C@@H](O)[C@H]2O)cc1 (stereo not given in full)
Ki [1]: 210 nM

CSCC[C@H](NC(=O)[C@H](CC(C)C)NC(=O)CNC(=O)[C@H](Cc1ccccc1)NC(=O)[C@H](Cc1ccccc1)NC(=O)Cc1ccc(Nc2ncnc3c2ncn3[C@@H]2O[C@H](CO)[C@@H](O)[C@H]2O)cc1)C(N)=O (X2-FFGLM-NH2)
Ki [1]: 16 nM
Ki [2]: 2000 nM

CCCN1C(=O)C2NC(c3ccc(OCC(=O)NCCNC(=O)CN)cc3)=NC2N(CCC)C1=O (stereo not given)
Ki [1]: 2.1 nM
Ki [2]: > 10000 nM

CSCC[C@H](NC(=O)[C@H](CC(C)C)NC(=O)CNC(=O)[C@H](Cc1ccccc1)NC(=O)[C@H](Cc1ccccc1)NC(C)=O)C(N)=O
Ki [2]: > 10000 nM

CNC(=O)Cc1ccc(Nc2ncnc3c2ncn3C2O[C@H](CO)[C@@H](O)[C@H]2O)cc1 (stereo not given in full)
Ki [2]: > 10000 nM

CCCN1C(=O)C2NC(c3ccc(OCC(=O)NCCNC(=O)C(N)CC(=O)N[C@@H](Cc4ccccc4)C(=O)N[C@@H](Cc4ccccc4)C(=O)NCC(N)=O)cc3)=NC2N(CCC)C1=O (stereo not given in full)
Ki [1]: 30 nM
Ki [2]: > 10000 nM

CCCN1C(=O)C2NC(c3ccc(OCC(=O)NCCNC(=O)C(N)CC(N)=O)cc3)=NC2N(CCC)C1=O (stereo not given)
Ki [1]: 4.3 nM

H-QFFGLM-NH2
Ki [2]: 450 nM

CCCN1C(=O)C2NC(c3ccc(OCC(=O)NCCNC(=O)C(N)CC(=O)N[C@@H](Cc4ccccc4)C(=O)N[C@@H](Cc4ccccc4)C(=O)NCC(=O)N[C@@H](CC(C)C)C(=O)N[C@@H](CCSC)C(N)=O)cc3)=NC2N(CCC)C1=O (stereo not given in full) (X1-FFGLM-NH2)
Ki [1]: 35 nM
Ki [2]: 300 nM
